Results taken from patent US6114318A, “17β-(2-oxo-tetrahydrofuranyl)-thio- substituted androstane derivatives” (Glaxo Group Limited, priority 1995, dated 2000).

Legend:
Rat Ear Oedema = test: Anti-Inflammatory Activity--Inhibition of Rat Ear Oedema (croton oil); assay type: in vivo; conditions: dose 100 μg, inner surface of ears, male rats, 6 hours
Method: (i) Anti-Inflammatory Activity--Inhibition of Rat Ear Oedema
The test compounds are dissolved in acetone and 40ul containing 5% croton oil is applied to the inner surface of each of the ears of 60-80 g male rats. Animals are killed 6 hours later and the ears are removed. Standard size (0.5 cm diameter) discs are punched out and the discs weighed. Mean weight of the ear discs is calculated and from this percentage inhibition of ear inflammation in relation to croton oil alone treated ears are calculated.

ACTH = test: Systemic Effects--ACTH Suppression in Adrenalectomised Rats; assay type: in vivo, Male CD rats; conditions: single intra-tracheal, 4 h
Method: (ii) Systemic Effects--ACTH Suppression in Adrenalectomised Rats
Male CD rats (90-120 g) were adrenalectomised under Isoflurane anaesthesia and drinking water was supplemented with 0.9% saline. Four days later the animals receive a single intra-tracheal dose (under Isoflurane anaesthesia) of compound suspended in saline (containing 0.2% Tween-80, 0.2 ml) at 10am. After 4 h animals are sacrificed by administration of Euthetal and blood samples are taken by intra-cardiac puncture and collected into heparinised tubes. The samples are centrifuged (20 minutes at 1000 RPM at 4 deg C.), the plasma is collected and assayed by Radioimmunoassay (RIA) for Adrenocorticotrophic hormone (ACTH) using a DPC double antibody RIA kit. Intact and vehicle control groups were included in each experiment in order to account for diurnal variation in ACTH and effects of vehicle. Results are calculated with respect to the RIA standard curve and expressed as ACTH pg/ml plasma, allowing percentage reduction in ACTH to be calculated.

CC1(C)O[C@@H]2C[C@H]3[C@@H]4C[C@H](F)C5=CC(=O)C=C[C@]5(C)[C@@]4(F)[C@@H](O)C[C@]3(C)[C@]2(SC2CCOC2=O)O1 (single isomer, unassigned) [Example 2 Isomer A, 6α,9α-Difluoro-11β-hydroxy-16α,17α-isopropylidenedioxy-17β-(2-oxo-tetrahydro-furan-3-yl-sulfanyl)-androsta-1,4-dien-3-one]
% Inhibition (ear inflammation) (Rat Ear Oedema): 56% | % Reduction in ACTH (ACTH; dose 125 μg): 5% | % Reduction in ACTH (ACTH; dose 250 μg): 29% | % Reduction in ACTH (ACTH; dose 500 μg): 45%

CC1(C)O[C@@H]2C[C@H]3[C@@H]4C[C@H](F)C5=CC(=O)C=C[C@]5(C)[C@@]4(F)[C@@H](O)C[C@]3(C)[C@]2(S[C@H]2CCOC2=O)O1 (single isomer, unassigned) [Example 2 Isomer B, 6α,9α-Difluoro-11β-hydroxy-16α,17α-isopropylidenedioxy-17β-(2-oxo-tetrahydro-furan-3-yl-sulfanyl)-androsta-1,4-dien-3-one]
% Inhibition (ear inflammation) (Rat Ear Oedema): 54%

CCC[C@@H]1O[C@@H]2C[C@H]3[C@@H]4C[C@H](F)C5=CC(=O)CC[C@]5(C)[C@@]4(F)[C@@H](O)C[C@]3(C)[C@]2(SC2CCOC2=O)O1 (single isomer, unassigned) [Example 3 Isomer A, 16α,17α-(R-Butylidenedioxy)-6α,9α-difluoro-11β-hydroxy-17β-(2-oxo-tetrahydro-furan-3-yl-sulfanyl)-androst-4-en-3-one]
% Inhibition (ear inflammation) (Rat Ear Oedema): 55%

CC1(C)O[C@@H]2C[C@H]3[C@@H]4C[C@H](F)C5=CC(=O)C=C[C@]5(C)[C@@]4(F)[C@@H](O)C[C@]3(C)[C@]2(C(=O)CO)O1 [Fluocinolone acetonide, reference compound]
% Reduction in ACTH (ACTH; dose 1 μg): 49% | % Reduction in ACTH (ACTH; dose 5 μg): 84%
